Values of other authors, collected in patent US10045962B2 (priority 2014, dated 2018).

Experiments:
[1] = tested on: adrenergic receptors; conditions: in vitro tests; cited from earlier work
[2] = tested on: histaminergic receptors; conditions: in vitro tests; cited from earlier work
[3] = tested on: reuptake of dopamine; conditions: pre-clinical tests; cited from earlier work
[4] = tested on: reuptake of norepinephrine; conditions: pre-clinical tests; cited from earlier work
[5] = tested on: cholinergic receptors; conditions: in vitro tests; cited from earlier work
[6] = tested on: dopaminergic receptors; conditions: in vitro tests; cited from earlier work
[7] = tested on: reuptake of serotonin; conditions: pre-clinical tests; cited from earlier work
[8] = tested on: monoamine oxidase; conditions: cited from earlier work

In the case of `CNCC[C@H](Oc1cccc2ccccc12)c1cccs1` [duloxetine], the “affinity to adrenergic receptors” value [1] is listed as “no significant affinity”, the “affinity to histaminergic receptors” value [2] is listed as “no significant affinity” and the “block of reuptake of dopamine” value [3] is listed as “merely slightly block”. The “block of reuptake of norepinephrine” value [4] was “effectively block”, the “affinity to cholinergic receptors” value [5] was “no significant affinity” and the “affinity to dopaminergic receptors” value [6] was “no significant affinity”. For the same compound, the “block of reuptake of serotonin” value [7] was “effectively block” and the “inhibition of monoamine oxidase” value [8] was “does not inhibit”.
